From PubChem BioAssay AID1963976 (Molecular Pharmacology Branch, DTP, NCI, 2024)
“And” between values parts separate entries of the source, which are not always exact repeats. Equal values may be shown once.

System: 435261-313-R-J1-PDC tumor spheroid viability
Test: Anticancer human tumor 435261-313-R-J1-PDC patient-derived colon adenocarcinoma cell line growth inhibition [PI3K]
Conditions: spheroids with HUVEC and MSC; for viability, T/C: stronger effect = lower value; active = viability on the fitted dose curve at most 10% of control; inactive = the rest
Method in brief: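 Stroma-containing spheroids: tumor line, pooled-donor HUVEC, hMSC. Treatments: targeted agents with PI3K inhibitors. Dosing: clinically relevant, half-log spacing, 10 microM ceiling without known Cmax. Read-out: cell viability.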

[1] = curve of first compound, second compound 0.0316 µM
[2] = curve of first compound, second compound 0.1 µM
[3] = curve of first compound, second compound 0.316 µM
[4] = curve of first compound, second compound 1 µM
[5] = curve of first compound, second compound 3.16 µM
[6] = curve of first compound, second compound 10 µM
[7] = second compound 0.0316 µM, first compound 0.0316 µM
[8] = second compound 0.0316 µM, first compound 0.1 µM
[9] = second compound 0.0316 µM, first compound 0.316 µM
[10] = second compound 0.0316 µM, first compound 1 µM
[11] = second compound 0.0316 µM, first compound 3.16 µM
[12] = second compound 0.0316 µM, first compound 10 µM
[13] = second compound 0.1 µM, first compound 0.0316 µM
[14] = second compound 0.1 µM, first compound 0.1 µM
[15] = second compound 0.1 µM, first compound 0.316 µM
[16] = second compound 0.1 µM, first compound 1 µM
[17] = second compound 0.1 µM, first compound 3.16 µM
[18] = second compound 0.1 µM, first compound 10 µM
[19] = second compound 0.316 µM, first compound 0.0316 µM
[20] = second compound 0.316 µM, first compound 0.1 µM
[21] = second compound 0.316 µM, first compound 0.316 µM
[22] = second compound 0.316 µM, first compound 1 µM
[23] = second compound 0.316 µM, first compound 3.16 µM
[24] = second compound 0.316 µM, first compound 10 µM
[25] = second compound 1 µM, first compound 0.0316 µM
[26] = second compound 1 µM, first compound 0.1 µM
[27] = second compound 1 µM, first compound 0.316 µM
[28] = second compound 1 µM, first compound 1 µM
[29] = second compound 1 µM, first compound 3.16 µM
[30] = second compound 1 µM, first compound 10 µM
[31] = second compound 3.16 µM, first compound 0.0316 µM
[32] = second compound 3.16 µM, first compound 0.1 µM
[33] = second compound 3.16 µM, first compound 0.316 µM
[34] = second compound 3.16 µM, first compound 1 µM
[35] = second compound 3.16 µM, first compound 3.16 µM
[36] = second compound 3.16 µM, first compound 10 µM
[37] = second compound 10 µM, first compound 0.0316 µM
[38] = second compound 10 µM, first compound 0.1 µM
[39] = second compound 10 µM, first compound 0.316 µM
[40] = second compound 10 µM, first compound 1 µM
[41] = second compound 10 µM, first compound 3.16 µM
[42] = second compound 10 µM, first compound 10 µM
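Also: spheroids exposed to compounds for 7 days.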

CC1(C)CCC(Nc2ncc(C(F)(F)F)c(-c3c[nH]c4c(P(C)(C)=O)c(C#N)ccc34)n2)CN1 (configuration not stated) + Cc1nc(NC(=O)N2CCCC2C(N)=O)sc1-c1ccnc(C(C)(C)C(F)(F)F)c1
inactive: viability, T/C [7] 47.1% | viability, T/C [8] 45.9% | viability, T/C [9] 39.3% | viability, T/C [10] 38.1% | viability, T/C [11] 33.7% | viability, T/C [13] 48.5% | viability, T/C [14] 36.8% | viability, T/C [15] 41.9% | viability, T/C [16] 38.3% | viability, T/C [17] 32.4% | viability, T/C [19] 35.5% | viability, T/C [20] 33.5% | viability, T/C [21] 27.3% | viability, T/C [22] 29.3% | viability, T/C [23] 25.4% | viability, T/C [25] 23.3% | viability, T/C [26] 22.3% | viability, T/C [27] 26.7% | viability, T/C [28] 27.3% | viability, T/C [29] 14.8% | viability, T/C [31] 14.8% | viability, T/C [32] 17.2% | viability, T/C [33] 14.7% | viability, T/C [34] 14.2%
< 0.0316 µM: IC50 [1] | IC50 [2] | IC50 [3] | IC50 [4] | IC50 [5] | IC50 [6]
active: viability, T/C [12] 0.64% | viability, T/C [18] 0.39% | viability, T/C [24] 0.33% | viability, T/C [30] 0.53% | viability, T/C [35] 6.95% | viability, T/C [36] 0.84% | viability, T/C [37] 7.65% | viability, T/C [38] 5.94% | viability, T/C [39] 5.07% | viability, T/C [40] 6.14% | viability, T/C [41] 2.6% | viability, T/C [42] 1.22%

Cn1nccc1Nc1nccc(-c2ccn(C(CO)c3ccc(Cl)c(F)c3)c(=O)c2)n1 (configuration not stated) + Cc1nc(NC(=O)N2CCCC2C(N)=O)sc1-c1ccnc(C(C)(C)C(F)(F)F)c1
< 0.0316 µM: IC50 [3] | IC50 [4] | IC50 [5] | IC50 [6]
active: viability, T/C [24] 7.34% | viability, T/C [28] 8% | viability, T/C [29] 7.78% | viability, T/C [30] 3.02% | viability, T/C [33] 9.01% | viability, T/C [34] 4.15% | viability, T/C [35] 3.68% | viability, T/C [36] 1.12% | viability, T/C [37] 7.41% | viability, T/C [38] 4.45% | viability, T/C [39] 2.55% | viability, T/C [40] 1.89% | viability, T/C [41] 0.52% | viability, T/C [42] 0.24%
0.147 µM: IC50 [1]
0.119 µM: IC50 [2]
inactive: viability, T/C [7] 62.5% | viability, T/C [8] 58.2% | viability, T/C [9] 37% | viability, T/C [10] 24.5% | viability, T/C [11] 20.9% | viability, T/C [12] 11.4% | viability, T/C [13] 53.1% | viability, T/C [14] 54.8% | viability, T/C [15] 32.4% | viability, T/C [16] 18.5% | viability, T/C [17] 17.9% | viability, T/C [18] 10.8% | viability, T/C [19] 36% | viability, T/C [20] 36.4% | viability, T/C [21] 21.3% | viability, T/C [22] 12.9% | viability, T/C [23] 14% | viability, T/C [25] 19.1% | viability, T/C [26] 18.9% | viability, T/C [27] 11.6% | viability, T/C [31] 13.6% | viability, T/C [32] 10.8%

Cn1cnc2c(F)c(Nc3ccc(Br)cc3Cl)c(C(=O)NOCCO)cc21
inactive: viability, T/C (compound 0.00949 µM) 33.8% and 34.9% and 45.8% | viability, T/C (compound 0.03 µM) 32.3% and 27.6% and 36% | viability, T/C (compound 0.0949 µM) 12.5% and 23.4% and 29.8% | viability, T/C (compound 0.3 µM) 30.7% and 22.9% and 24.5% | viability, T/C (compound 0.949 µM) 16.1% and 18.4% and 20.9% | viability, T/C (compound 3 µM) 9.65% and 10.9% and 16.8%
< 0.00949 µM: IC50 (curve of compound)

CC(Nc1ccc2c(c1)OCCn1cc(N3C(=O)OCC3C(F)F)nc1-2)C(N)=O (configuration not stated)
inactive: viability, T/C (compound 0.1 µM) 31.2% [middle of 7 runs] | viability, T/C (compound 0.316 µM) 23.1% [middle of 7 runs] | viability, T/C (compound 1 µM) 20.4% [middle of 7 runs]

C[C@@H](NC(=O)c1ncnc(N)c1Cl)c1ncc(C(=O)Nc2cc(C(F)(F)F)c(Cl)cn2)s1 + CC(Nc1ccc2c(c1)OCCn1cc(N3C(=O)OCC3C(F)F)nc1-2)C(N)=O
inactive: viability, T/C (second compound 0.00316 µM, first compound 0.0316 µM) 168% | viability, T/C (second compound 0.00316 µM, first compound 0.1 µM) 171% | viability, T/C (second compound 0.00316 µM, first compound 0.316 µM) 154% | viability, T/C (second compound 0.00316 µM, first compound 1 µM) 148% | viability, T/C (second compound 0.00316 µM, first compound 3.16 µM) 158% | viability, T/C (second compound 0.00316 µM, first compound 10 µM) 116% | viability, T/C (second compound 0.01 µM, first compound 0.0316 µM) 136% | viability, T/C (second compound 0.01 µM, first compound 0.1 µM) 152% | viability, T/C (second compound 0.01 µM, first compound 0.316 µM) 191% | viability, T/C (second compound 0.01 µM, first compound 1 µM) 135% | viability, T/C (second compound 0.01 µM, first compound 3.16 µM) 140% | viability, T/C (second compound 0.01 µM, first compound 10 µM) 108% | viability, T/C [7] 99.4% | viability, T/C [8] 126% | viability, T/C [9] 155% | viability, T/C [10] 158% | viability, T/C [11] 112% | viability, T/C [12] 85.4% | viability, T/C [13] 74.7% | viability, T/C [14] 72% | viability, T/C [15] 115% | viability, T/C [16] 77.2% | viability, T/C [17] 58.6% | viability, T/C [18] 32.5% | viability, T/C [19] 51.3% | viability, T/C [20] 47.6% | viability, T/C [21] 36.9% | viability, T/C [22] 39.3% | viability, T/C [23] 35.8% | viability, T/C [24] 9.29% | viability, T/C [25] 29.2% | viability, T/C [26] 33.5% | viability, T/C [27] 21.3% | viability, T/C [28] 27% | viability, T/C [29] 23% | viability, T/C [30] 6.01%
4.55 µM: IC50 [2]
< 0.0316 µM: IC50 [3] | IC50 [4]
> 10 µM: IC50 (curve of first compound, second compound 0.00316 µM) | IC50 (curve of first compound, second compound 0.01 µM) | IC50 [1]

CC1(C)CCC(CN2CCN(c3ccc(C(=O)NS(=O)(=O)c4ccc(NCC5CCOCC5)c([N+](=O)[O-])c4)c(Oc4cnc5[nH]ccc5c4)c3)CC2)=C(c2ccc(Cl)cc2)C1
inactive: viability, T/C (compound 3.16 µM) 107% [middle of 4 runs]
